Results: paper PMC10999543, “Identification of kinase modulators as host-directed therapeutics against intracellular methicillin-resistant Staphylococcus aureus” (Frontiers in Cellular and Infection Microbiology, 2024)
Like-named read-outs stand apart in the source and are kept apart here.

What was measured:
[1] = system: HeLa cells; experiment: Compound screen by flow cytometry: HeLa cell count as surrogate readout of cell viability (z-scoreHeLa); assay type: cell-based, human; conditions: for cell count rep 1 / z-scoreHeLa rep 1: replicate 1; for cell count rep 2 / z-scoreHeLa rep 2: replicate 2; for cell count rep 3 / z-scoreHeLa rep 3: replicate 3; for z-scoreHeLa mean: mean of 3 replicates
Procedure, shortened: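 The viability surrogate was the count of fixed HeLa cells by flow cytometry, converted to z-scores against DMSO controls with values deviating two-fold excluded. Before counting, cells had been infected with MRSA for 1 h and cleared of extracellular bacteria with gentamicin. They were then exposed overnight to kinase inhibitors in triplicate.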

[2] = system: intracellular MRSA; assay type: cell-based, Staphylococcus aureus; conditions: for %GFP+ rep 1 / z-scoreMRSA+ rep 1: replicate 1; for %GFP+ rep 2 / z-scoreMRSA+ rep 2: replicate 2; for %GFP+ rep 3 / z-scoreMRSA+ rep 3: replicate 3; for z-scoreMRSA+ mean: mean of 3 replicates
Procedure, shortened: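 HeLa cells were infected with GFP-expressing MRSA (mean MOI 6.8) for 1 h, treated with 30 µg/ml gentamicin for 15 min, then incubated overnight at 37°C with kinase inhibitors and 5 µg/ml gentamicin. Flow cytometry gave % GFP-positive cells, with cell count as viability. Hits were z-score ≤ -2 (infection) and ≥ -3 (count) versus DMSO.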

[3] = PKIS compound screen raw data, HeLa cell count
[4] = PKIS compound screen, HeLa cell count
[5] = PKIS compound screen, Yes/No call on z-scoreHeLa
[6] = PKIS compound screen raw data, MRSA-infected HeLa cells
[7] = PKIS compound screen, MRSA-infected HeLa cells
[8] = PKIS compound screen, Yes/No call (effect without cell death)
[9] = PKIS compound screen, Yes/No call on z-scoreMRSA+
[10] = PKIS compound screen, Yes/No call
[11] = PKIS compounds raw data, HeLa cell count
[12] = PKIS compounds raw data, MRSA-infected HeLa cells
[13] = compound screen, HeLa cell count
[14] = Yes/No: effect without cell death
[15] = compound screen, MRSA-infected HeLa cells

SMILES | cell count rep 1 [1, 3] | cell count rep 2 [1, 3] | cell count rep 3 [1, 3] | z-scoreHeLa mean [1, 4] | z-scoreHeLa rep 1 [1, 4] | z-scoreHeLa rep 2 [1, 4] | z-scoreHeLa rep 3 [1, 4] | cell death [1, 5] | %GFP+ rep 1 [2, 6] | %GFP+ rep 2 [2, 6] | %GFP+ rep 3 [2, 6] | z-scoreMRSA+ mean [2, 7] | z-scoreMRSA+ rep 1 [2, 7] | z-scoreMRSA+ rep 2 [2, 7] | z-scoreMRSA+ rep 3 [2, 7] | hit [2, 8] | effect [2, 9] | cell count rep 1 [1, 11] | cell count rep 2 [1, 11] | cell count rep 3 [1, 11] | further results
c1ccc(Oc2ccc(Nc3ccnc4cc(-c5ccc(CN6CCNCC6)o5)ccc34)cc2)nc1 [GW567142A] | 37910 | 29813 | 27656 | 1.26 | 1.31 | 0.78 | 1.70 | No | 18.2% | 19.4% | 17.4% | -0.40 | -0.15 | -0.00228 | -1.05 | No | No |  |  |  | 
c1ccc(Oc2ccc(Nc3ccnc4cc(-c5ccc(CNCCN6CCOCC6)o5)ccc34)cc2)nc1 [GW567145X] | 29321 | 19879 | 15455 | -0.58 | -0.15 | -0.93 | -0.68 | No | 20.5% | 21.2% | 22.8% | 0.46 | 0.46 | 0.49 | 0.43 | No | No | 6078 | 7342 | 5085 | cell death [1, 10]: No; z-scoreHeLa mean ([1]; PKIS compound screen): 0.19; z-scoreHeLa rep 1 ([1]; PKIS compound screen): 0.019; z-scoreHeLa rep 2 ([1]; PKIS compound screen): 0.89; z-scoreHeLa rep 3 ([1]; PKIS compound screen): -0.32; effect [2, 10]: No; z-scoreMRSA+ mean ([2]; PKIS compound screen): -0.39; z-scoreMRSA+ rep 1 ([2]; PKIS compound screen): -0.38; z-scoreMRSA+ rep 2 ([2]; PKIS compound screen): -0.37; z-scoreMRSA+ rep 3 ([2]; PKIS compound screen): -0.40; %GFP+ rep 1 [2, 12]: 25.1%; %GFP+ rep 2 [2, 12]: 24.1%; %GFP+ rep 3 [2, 12]: 25.1%
OCCCNc1nccc(-c2c(-c3ccc(F)cc3)nn3cc(C(F)(F)F)ccc23)n1 [GW569293E] | 13158 | 40183 | 38241 | -0.14 | -1.06 | 1.01 | -0.36 | No | 17.0% | 16.9% | 19.3% | -0.30 | -0.27 | -0.49 | -0.15 | No | No |  |  |  | 
Cc1ccc(Nc2ccnc(Nc3cccc(C(N)=O)c3)n2)cc1O [GW575808A] | 19398 | 38059 | 43165 | 0.31 | -0.11 | 0.61 | 0.42 | No | 13.4% | 14.8% | 16.1% | -1.22 | -1.41 | -1.12 | -1.12 | No | No |  |  |  | 
COc1cc(Nc2ccnc3ccc(C(F)(F)F)cc23)cc(OC)c1OC [GW577382X] | 2914 | 2336 | 2608 |  |  |  |  |  | 19.6% | 17.8% | 18.8% |  |  |  |  |  |  |  |  |  | cell death ([1]; Yes/No call from z-scoreHeLa): No; z-scoreHeLa mean [1, 13]: -1.40; z-scoreHeLa rep 1 [1, 13]: -1.04; z-scoreHeLa rep 2 [1, 13]: -1.51; z-scoreHeLa rep 3 [1, 13]: -1.66; effect ([2]; Yes/No call from z-scoreMRSA+): No; hit [2, 14]: No; z-scoreMRSA+ mean [2, 15]: -1.17; z-scoreMRSA+ rep 1 [2, 15]: -1.32; z-scoreMRSA+ rep 2 [2, 15]: -1.17; z-scoreMRSA+ rep 3 [2, 15]: -1.02
COc1cc(/C=N/Nc2ncnc3[nH]ncc23)ccc1O [GW578748X] |  |  |  |  |  |  |  |  |  |  |  |  |  |  |  | No |  | 4206 | 5592 | 7495 | cell death [1, 10]: No; z-scoreHeLa mean ([1]; PKIS compound screen): 0.25; z-scoreHeLa rep 1 ([1]; PKIS compound screen): -0.52; z-scoreHeLa rep 2 ([1]; PKIS compound screen): 1.00; z-scoreHeLa rep 3 ([1]; PKIS compound screen): 0.26; effect [2, 10]: No; z-scoreMRSA+ mean ([2]; PKIS compound screen): -1.18; z-scoreMRSA+ rep 1 ([2]; PKIS compound screen): -0.92; z-scoreMRSA+ rep 2 ([2]; PKIS compound screen): -1.14; z-scoreMRSA+ rep 3 ([2]; PKIS compound screen): -1.48; %GFP+ rep 1 [2, 12]: 10.3%; %GFP+ rep 2 [2, 12]: 10.1%; %GFP+ rep 3 [2, 12]: 10.9%
CS(=O)(=O)CCNCc1nc(-c2ccc3ncnc(Nc4ccc(OCc5ccccc5)c(Cl)c4)c3c2)cs1 [GW582764A] | 3605 | 3519 | 4776 |  |  |  |  |  | 15.6% | 19.2% | 19.4% |  |  |  |  |  |  |  |  |  | cell death ([1]; Yes/No call from z-scoreHeLa): No; z-scoreHeLa mean [1, 13]: -0.48; z-scoreHeLa rep 1 [1, 13]: -0.54; z-scoreHeLa rep 2 [1, 13]: -0.60; z-scoreHeLa rep 3 [1, 13]: -0.29; effect ([2]; Yes/No call from z-scoreMRSA+): No; hit [2, 14]: No; z-scoreMRSA+ mean [2, 15]: -1.31; z-scoreMRSA+ rep 1 [2, 15]: -2.25; z-scoreMRSA+ rep 2 [2, 15]: -0.83; z-scoreMRSA+ rep 3 [2, 15]: -0.84
CS(=O)(=O)CCNCc1nc(-c2ccc3ncnc(Nc4ccc(OCc5cccc(F)c5)c(Cl)c4)c3c2)cs1 [GW583340C] |  |  |  |  |  |  |  |  |  |  |  |  |  |  |  |  |  | 5969 | 5507 | 7162 | cell death ([1]; Yes/No call from z-scoreHeLa): No; z-scoreHeLa mean [1, 13]: 1.10; z-scoreHeLa rep 1 [1, 13]: 1.17; z-scoreHeLa rep 2 [1, 13]: 0.93; z-scoreHeLa rep 3 [1, 13]: 1.22; %GFP+ rep 1 [2, 12]: 17.5%; %GFP+ rep 2 [2, 12]: 15.0%; %GFP+ rep 3 [2, 12]: 17.3%; effect ([2]; Yes/No call from z-scoreMRSA+): No; hit [2, 14]: No; z-scoreMRSA+ mean [2, 15]: -1.71; z-scoreMRSA+ rep 1 [2, 15]: -1.81; z-scoreMRSA+ rep 2 [2, 15]: -1.85; z-scoreMRSA+ rep 3 [2, 15]: -1.47
CN(C)CCCNc1nccc(-c2c(-c3ccc(F)cc3)nn3cc(C(F)(F)F)ccc23)n1 [GW618013A] | 23652 | 24495 | 45248 | -0.21 | 0.54 | -1.92 | 0.75 | No | 10.7% | 13.4% | 14.0% | -1.86 | -2.27 | -1.54 | -1.76 | No | No |  |  |  | 
COc1cc(Nc2ncc(-c3ccccc3)o2)cc(OC)c1OC [GW627512B] |  |  |  |  |  |  |  |  |  |  |  |  |  |  |  |  |  | 2360 | 2993 | 4653 | cell death ([1]; Yes/No call from z-scoreHeLa): No; z-scoreHeLa mean [1, 13]: -1.42; z-scoreHeLa rep 1 [1, 13]: -2.18; z-scoreHeLa rep 2 [1, 13]: -0.96; z-scoreHeLa rep 3 [1, 13]: -1.10; %GFP+ rep 1 [2, 12]: 11.0%; %GFP+ rep 2 [2, 12]: 12.1%; %GFP+ rep 3 [2, 12]: 12.6%; effect ([2]; Yes/No call from z-scoreMRSA+): No; hit [2, 14]: No; z-scoreMRSA+ mean [2, 15]: -0.71; z-scoreMRSA+ rep 1 [2, 15]: -0.70; z-scoreMRSA+ rep 2 [2, 15]: -0.47; z-scoreMRSA+ rep 3 [2, 15]: -0.97
COc1ccc(COc2ccc(Cc3cnc(N)nc3N)cc2OC)cc1 [GW632580X] | 16746 | 34970 | 43497 | -0.0017 | -0.51 | 0.0341 | 0.47 | No | 19.0% | 19.0% | 21.7% | 0.36 | 0.36 | 0.14 | 0.58 | No | No |  |  |  | 
CC(C)S(=O)(=O)N1CCN(Cc2ccc3c(c2)nc(NC(=O)c2ccsc2)n3C[C@H](O)c2ccccc2)CC1 [GW635815X] | 31634 | 26865 | 24254 | 0.52 | 0.24 | 0.27 | 1.04 | No | 12.8% | 14.2% | 14.5% | -1.62 | -1.60 | -1.42 | -1.84 | No | No |  |  |  | 
